From US5622839A (ZymoGenetics, Inc., priority 1995, dated 1997)
Read-outs that look alike come from different tables or passages of the source.

How the values were obtained:
[1] = molecular target: T1, human calcitonin receptor (Homo sapiens, UniProt P30988); test: cAMP response by radioimmunoassay (scintillation proximity assay) in Hollex1 and Hollex2; type: cell-based; details: 10 min; for EC50: read-out: ED50 (cAMP)
T1 construct: Hollex encoded a protein of 474 amino acids; expressed in transfected cells; host or cells: BHK 570 / BHK/KZ10-20-48 (baby hamster kidney) stably transfected with pHollex
T1 sequence (P30988 25-474): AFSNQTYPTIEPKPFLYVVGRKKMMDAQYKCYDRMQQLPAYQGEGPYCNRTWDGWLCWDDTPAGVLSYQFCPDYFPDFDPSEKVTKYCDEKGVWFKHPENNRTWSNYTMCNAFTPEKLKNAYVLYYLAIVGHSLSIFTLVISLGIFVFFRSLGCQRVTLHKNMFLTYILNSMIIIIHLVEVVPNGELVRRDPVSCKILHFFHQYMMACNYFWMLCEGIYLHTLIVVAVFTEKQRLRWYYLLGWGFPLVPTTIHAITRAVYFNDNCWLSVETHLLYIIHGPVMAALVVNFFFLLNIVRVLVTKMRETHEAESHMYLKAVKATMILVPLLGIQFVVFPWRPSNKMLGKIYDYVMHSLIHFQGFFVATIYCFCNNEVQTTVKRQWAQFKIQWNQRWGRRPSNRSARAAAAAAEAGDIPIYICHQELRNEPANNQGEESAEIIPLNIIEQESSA
Method: The cAMP response of the transfectant clones Hollex1 and Hollex2 to calcitonin and forskolin was also assayed by radioimmunoassay using the cAMP [^125 I] scintillation proximity assay system (Amersham) using the manufacturer's directions. Briefly, either 1×10^5 cells per well or 3×10^5 cells per well were plated into the wells of a 24-well culture dish and grown for 2 days (1×10^5 cells per well) or overnight (3×10^5 cells per well) in selection medium. Calcitonin and forskolin were prepared in DMEM, 10% fetal calf serum, 10 μM IBMX at 0.0001-1000 nM and 25 μM, respectively.
The growth medium was replaced with 200 μl/well of agonist (either calcitonin or forskolin). The cells were incubated with the agonists for 10 minutes at 37° C. in 5% CO2. Following incubation, 800 μl of boiling water was added to each well. After 15 minutes the supernatants were collected and diluted 1:5 or 1:40 in acetate buffer (cAMP [^125 I] Scintillation Proximity Assay System (Amersham)). Samples were acetylated using triethylamine and acetic anhydride according to the protocol provided by the manufacturer.
A 100 μl aliquot of each acetylated sample was combined with 75 μl of ^125 I-cAMP, 75 μl anti-succinyl cAMP antisera and 75 μl of donkey anti-rabbit IgG coupled SPA beads (all assay solutions provided in the cAMP [^125 I] Scintillation Proximity Assay System (Amersham)) in a well of an Dynatech MICROLITE 2 plate. The trays were sealed and incubated overnight with continuous shaking on a rotary platform shaker at 200 rpm. The samples were counted in a Packard Top Count Microplate Scintillation Counter (Packard Instrument Co., Meriden, Conn.). A standard curve of 2-128 fmol acetylated cAMP was also run. Total ^125 I-cAMP bound and nonspecific binding were also determined.

[2] = test system: bone resorption; details: compared with human forms of calcitonin; background; cited from earlier work
[3] = molecular target: T1, human calcitonin receptor; test: Calcitonin competition binding assay with cloned human calcitonin receptor (Hollex1, Hollex2); details: for Results (bound 125I calcitonin): 125I calcitonin […] 10^-2 nM
Method: Clones Hollex1 and Hollex2 were tested for receptor-mediated ability to bind calcitonin using a competition assay. T47D cells were used as a positive control and BHK cells transfected with Zem1698 were used as a negative control.
The cells were rinsed in binding medium (500 ml RPMI 1640 (Sigma, St. Louis, Mo.), 1 mg/ml bacitracin (Sigma), and 1 mg/ml BSA (Boehringer Mannheim)) to remove the serum. […] The cells were incubated for 1.5 hours at room temperature, and then rinsed 3 times with PBS to remove unincorporated radioactivity. Five hundred microliters of 0.25N NaOH was added to each well to solubilize the cells. The samples were collected from each well and CPMs were counted on a gamma counter.

salmon calcitonin
EC50 ([1]; Hollex1): 0.07 nM
induction of cAMP ([1]; Hollex1, saturating concentrations (10-100 nM)): 12 fold
EC50 ([1]; Hollex2): 0.04 nM
induction of cAMP levels ([1]; Hollex2, saturating concentrations (10-100 nM)): 5 fold
effectiveness in arresting bone resorption [2]: considerably more effective
baseline control ([3]; 200 nM unlabeled salmon calcitonin): 27 cpm
Kd ([3]; Hollex1): 0.5 ± 0.2 nM
Kd ([3]; Hollex2): 0.3 ± 0.01 nM
Results (bound 125I calcitonin) ([3]; unlabeled salmon calcitonin 0.003 nM): 10430 cpm
Results (bound 125I calcitonin) ([3]; unlabeled salmon calcitonin 0.01 nM): 10278 cpm
Results (bound 125I calcitonin) ([3]; unlabeled salmon calcitonin 0.03 nM): 10262 cpm
Results (bound 125I calcitonin) ([3]; unlabeled salmon calcitonin 0.1 nM): 9711 cpm
Results (bound 125I calcitonin) ([3]; unlabeled salmon calcitonin 0.3 nM): 8421 cpm
Results (bound 125I calcitonin) ([3]; unlabeled salmon calcitonin 1 nM): 4132 cpm
Results (bound 125I calcitonin) ([3]; unlabeled salmon calcitonin 3 nM): 1639 cpm
Results (bound 125I calcitonin) ([3]; unlabeled salmon calcitonin 10 nM): 558 cpm
Results (bound 125I calcitonin) ([3]; unlabeled salmon calcitonin 30 nM): 458 cpm
Results (bound 125I calcitonin) ([3]; unlabeled salmon calcitonin 50 nM): 147 cpm
